Among the data in patent publication US20090137577A1, “HETEROCYCLIC COMPOUNDS” (Pfizer Inc., priority 2007, published 2009) are EC50 values, retold here.

Broadly, the EC50 is the concentration giving half of the maximal effect.

The test deals with T1, mGluR2 receptor (metabotropic glutamate receptor 2) (Homo sapiens, UniProt Q14416).
T1 construct: expressed in transfected cells
T1 sequence (Q14416 19-872, species assumed): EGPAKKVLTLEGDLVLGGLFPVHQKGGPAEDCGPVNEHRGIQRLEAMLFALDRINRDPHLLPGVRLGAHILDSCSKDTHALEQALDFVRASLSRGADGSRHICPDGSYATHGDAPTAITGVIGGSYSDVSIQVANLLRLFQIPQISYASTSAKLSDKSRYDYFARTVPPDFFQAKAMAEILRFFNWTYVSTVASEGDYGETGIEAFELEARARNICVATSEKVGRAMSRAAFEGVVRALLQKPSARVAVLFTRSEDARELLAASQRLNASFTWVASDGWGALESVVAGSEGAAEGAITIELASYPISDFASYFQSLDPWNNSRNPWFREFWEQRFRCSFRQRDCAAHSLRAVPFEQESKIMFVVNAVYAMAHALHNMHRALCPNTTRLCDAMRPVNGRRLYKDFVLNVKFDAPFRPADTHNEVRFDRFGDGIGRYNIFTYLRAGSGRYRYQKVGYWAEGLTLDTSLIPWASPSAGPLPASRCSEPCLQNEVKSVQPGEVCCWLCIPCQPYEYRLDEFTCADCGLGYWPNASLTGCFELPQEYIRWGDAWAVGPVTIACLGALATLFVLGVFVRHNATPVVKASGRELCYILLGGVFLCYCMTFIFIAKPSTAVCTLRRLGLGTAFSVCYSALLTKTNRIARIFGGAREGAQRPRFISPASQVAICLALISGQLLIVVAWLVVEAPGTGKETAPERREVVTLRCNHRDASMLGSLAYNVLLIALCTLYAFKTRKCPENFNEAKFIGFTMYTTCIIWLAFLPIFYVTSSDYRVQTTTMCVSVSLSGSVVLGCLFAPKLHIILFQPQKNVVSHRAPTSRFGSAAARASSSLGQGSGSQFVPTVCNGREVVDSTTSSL
As to the kind of experiment: mGluR2 potentiator screen (FLIPR, EC10-EC20 glutamate challenge).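 Further: HEK cells stably expressing human mGluR2 with GL15 G protein, Fluo-4 calcium fluorescence read on FLIPR, compounds added before an EC10-EC20 glutamate challenge to detect potentiation.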 It is filed as cell-based. To be noted: geometric mean; read-out: mGluR 2 EC50 (geometric mean).
Turning to `CC1CN(Cc2ccc(OCc3ccc(F)cc3)cc2)C(=O)O1` (stereo not drawn) [Example 110], the EC50 is 243 nM.
The same measure for `CC1CN(Cc2ccc(OCCCOc3ccc(F)cc3)cc2)C(=O)O1` (stereo not drawn) [Example 152]: 46 nM.
Take `C[C@@H]1CN(Cc2ccc(-c3cc(F)cc(F)c3)cc2)C(=O)O1` [Example 246]: the EC50 was 445 nM.
The result for `CC(C)Oc1ccc(-c2ccc(CN3C[C@@H](C)OC3=O)cn2)c(F)c1` [Example 279] reads 159 nM; that for `CC(C)CCN1CCN(Cc2ccc(OC(C)C3CCCCC3)cc2)C(=O)C1` (stereo not drawn) [Example 220], 801 nM.
Turning to `CC1CN(Cc2ccc(OC3CCc4ccccc43)cc2)C(=O)O1` (stereo not drawn) [Example 140], the EC50 stood at 85.8 nM.
The same measure for `CC1CN(Cc2ccc(OCc3ccc(C#N)cc3)cc2)C(=O)O1` (stereo not drawn) [Example 124]: 827 nM; for `CC1CN(Cc2ccc(OCCCc3ccccc3)cc2)C(=O)O1` (stereo not drawn) [Example 104]: 37.9 nM; for `CC1CN(Cc2ccc(OC3Cc4ccccc4C3)cc2)C(=O)O1` (stereo not drawn) [Example 126]: 83.1 nM.
The same measure for `CC1CN(Cc2ccc(OCCC3CC3)cc2)C(=O)O1` (stereo not drawn) [Example 93]: 187 nM; for `O=C1OC(c2ccccc2)CN1Cc1ccc(OC2CCCCC2)cc1` (stereo not drawn) [Example 40]: 155 nM.
The same measure for `COc1ccc(CCCOc2ccc(CN3CC(C)OC3=O)cc2)cc1` (stereo not drawn) [Example 98]: 7.07 nM; for `CC(Oc1ccc(CN2CCN(CCCC(F)(F)F)CC2=O)cc1)C1CCCCC1` (stereo not drawn) [Example 218]: 681 nM; for `CC(=O)c1ccc(-c2ccc(CN3C[C@@H](C)OC3=O)cc2)cc1` [Example 171]: 60.2 nM.
Take `COc1ccc(F)cc1-c1ccc(CN2C[C@@H](C)OC2=O)cn1` [Example 267]: the EC50 came to 1160 nM.
As for `CCC1CN(Cc2ccc(-c3ccc(F)cc3F)cc2)C(=O)O1` (stereo not drawn) [Example 315], the concentration giving a half-maximal response (EC50) is 41.4 nM.
As for `C[C@H]1CN(Cc2ccc(O[C@H](C)c3ccccc3)cc2)C(=O)O1` [Example 68], the EC50 is 299 nM.
Turning to `C[C@@H]1CN(Cc2ccc(-c3ccc(OC(F)(F)F)cc3)nc2)C(=O)O1` [Example 255, (5R)-5-methyl-3-({6-[4-(trifluoromethoxy)phenyl]pyridin-3-yl}methyl)-1,3-oxazolidin-2-one], the EC50 was 463 nM.
Consider `Cc1ccc(F)c(COc2ccc(CN3CC(C)OC3=O)cc2)c1` (stereo not drawn) [Example 150], for which the 50% effective concentration (EC50) is 101 nM.
The same measure for `COc1cc(COc2ccc(CN3CC(C)OC3=O)cc2)ccc1F` (stereo not drawn) [Example 127]: 1680 nM; for `Cc1cc(CN2C[C@@H](C)OC2=O)ccc1OCC1CCCCC1` [Example 254, (5R)-3-[4-(Cyclohexylmethoxy)-3-methylbenzyl]-5-methyl-1,3-oxazolidin-2-one]: 71.2 nM.
With `O=C1OC(c2ccccc2)CN1Cc1ccc(OCC2CCC2)cc1` (stereo not drawn) [Example 9], the EC50 turned out to be 135 nM.
Regarding `CCOC(=O)c1ccccc1-c1ccc(CN2C[C@@H](C)OC2=O)cc1` [Example 197], the EC50 came to 1830 nM.
Turning to `CC(Oc1ccc(CN2CC(C)(C)COC2=O)cc1)C1CCCCC1` (stereo not drawn) [Example 47], the EC50 came out at 247 nM.
The result for `CCOc1ccccc1COc1ccc(CN2CC(C)OC2=O)cc1` (stereo not drawn) [Example 114] reads 25.7 nM.
The same measure for `COc1ccc(Cl)cc1-c1ccc(CN2C[C@@H](C)OC2=O)cn1` [Example 266]: 562 nM; for `CCN1CCN(Cc2ccc(OC(C)C3CCCCC3)cc2)C(=O)C1` (stereo not drawn) [Example 188, 1-[4-(1-cyclohexylethoxy)benzyl]-4-ethylpiperazin-2-one]: 725 nM; for `CCOC(=O)c1cccc(-c2ccc(CN3C[C@@H](C)OC3=O)cc2)c1` [Example 169]: 49 nM.
Turning to `C[C@@H]1CN(Cc2ccc(CCc3ccccc3)cc2)C(=O)O1` [Example 318, (5R)-5-methyl-3-[4-(2-phenylethyl)benzyl]-1,3-oxazolidin-2-one], the EC50 amounted to 111 nM.
The result for `COc1ccc(-c2ccc(CN3C[C@@H](C)OC3=O)cc2F)c(F)c1F` [Example 293] reads below 59.9 nM; that for `C[C@@H]1CN(Cc2ccc(-c3ccc(Cl)cc3F)cc2)C(=O)O1` [Example 256], below 39.8 nM; that for `COc1ccc(F)c(F)c1-c1ccc(CN2C[C@@H](C)OC2=O)cc1` [Example 243], below 25.3 nM.
The same measure for `C[C@H]1[C@@H](c2ccccc2)OC(=O)N1Cc1ccc(OCCC2CCCCC2)cc1` [Example 30]: 987 nM; for `C[C@@H]1CN(Cc2ccc(-c3ccc(Cl)cc3OC(F)(F)F)cc2)C(=O)O1` [Example 316]: 50.4 nM; for `C[C@@H]1CN(Cc2ccc(-c3ccc4c(c3)OCCCO4)cc2)C(=O)O1` [Example 189]: 83.7 nM.
Take `COc1ccc(C(C)C)cc1-c1ccc(CN2C[C@@H](C)OC2=O)cc1` [Example 156]: the EC50 is below 16.2 nM.
The same measure for `CC1CN(Cc2ccc(OC(C)c3ccccc3)cc2)C(=O)O1` (stereo not drawn) [Example 46]: 151 nM.
The same measure for `Cc1onc(-c2ccccc2)c1COc1ccc(CN2CC(C)OC2=O)cc1` (stereo not drawn) [Example 132]: 1670 nM.
The same measure for `COc1cc(COc2ccc(CN3CC(C)OC3=O)cc2)cc(OC)c1` (stereo not drawn) [Example 113]: 244 nM; for `C[C@@H]1CN(Cc2ccc(-c3cccc4cnccc34)cc2)C(=O)O1` [Example 162]: 42 nM.
With `COc1ccc(F)c(F)c1-c1ccc(CN2C[C@@H](C)OC2=O)cn1` [Example 263], the EC50 is 1370 nM.
The same measure for `C[C@@H]1CN(Cc2ccc(-c3ccc(C(F)(F)F)cc3Cl)nc2)C(=O)O1` [Example 268]: 102 nM; for `CC1(C)COC(=O)N(Cc2ccc(OCC3CCCCC3)cc2)C1` [Example 17]: 696 nM.
The result for `C[C@@H]1CN(Cc2ccc(-c3ccc(C(F)(F)F)cc3F)cc2F)C(=O)O1` [Example 252] reads 29.3 nM; that for `Cc1ccc(CN2CCN(Cc3ccc(OC(C)C4CCCCC4)cc3)C(=O)C2)cc1` (stereo not drawn) [Example 216], 471 nM; that for `CC(Oc1ccc(CN2C(=O)OC[C@@H]3CCCC[C@@H]32)cc1)c1ccccc1` (stereo partly drawn) [Example 35], 884 nM.
The result for `CC(Oc1ccc(CN2CC(c3ccccn3)OC2=O)cc1)C1CCCCC1` (stereo not drawn) [Example 207] reads 63.5 nM; that for `CCOc1cccc(COc2ccc(CN3CC(C)OC3=O)cc2)c1` (stereo not drawn) [Example 138], 87.3 nM.
`C[C@@H]1CN(Cc2ccc(-c3ccc(Cl)c(Cl)c3)cc2)C(=O)O1` [Example 182]: the EC50 was 74.6 nM.
As for `COc1ccc(Cl)cc1-c1ccc(CN2C[C@@H](C)OC2=O)cc1` [Example 196], the EC50 was 48.9 nM.
Turning to `C[C@@H]1CN(Cc2ccc(-c3cc4ccccc4o3)cc2)C(=O)O1` [Example 157], the EC50 is below 32.5 nM.
Take `C[C@@H]1CN(Cc2ccc(-c3ccc(C(F)(F)F)cc3F)nc2)C(=O)O1` [Example 258]: the EC50 is 205 nM.
Take `CC1(C)CN(Cc2ccc(-c3ccc(F)cc3F)cc2)C(=O)O1` [Example 314]: the EC50 is 18 nM.
Take `CCC(CC)CN1CCN(Cc2ccc(OC(C)C3CCCCC3)cc2)C(=O)C1` (stereo not drawn) [Example 217]: the 50% effective concentration (EC50) was found to be 947 nM.
The same measure for `COc1ccc(-c2ccc(CN3C[C@@H](C)OC3=O)cc2F)cn1` [Example 295]: 804 nM.
The result for `Cc1cc(CN2CC(c3cccnc3)OC2=O)ccc1OCC1CCCCC1` (stereo not drawn) [Example 250, 3-[4-(Cyclohexylmethoxy)-3-methylbenzyl]-5-pyridin-3-yl-1,3-oxazolidin-2-one] reads 1870 nM.
Consider `COc1cc(F)ccc1COc1ccc(CN2CC(C)OC2=O)cc1` (stereo not drawn) [Example 147], for which the EC50 was determined as 118 nM.
The result for `C[C@@H]1CN(Cc2ccc(-c3cccc(F)c3F)cc2)C(=O)O1` [Example 244] reads 97.2 nM.
The same measure for `C[C@@H]1CN(Cc2ccc(-c3ccc(N4CCOCC4)nc3)cc2)C(=O)O1` [Example 154]: 1240 nM; for `C[C@@H]1CN(Cc2ccc(-c3ccccc3OC(F)(F)F)cc2)C(=O)O1` [Example 164]: below 7.32 nM; for `C[C@@H]1CN(Cc2ccc(COc3ccc(F)cc3F)cc2)C(=O)O1` [Example 305, (5R)-3-{4-[(2,4-Difluorophenoxy)methyl]benzyl}-5-methyl-1,3-oxazolidin-2-one]: 416 nM.
`CCCC(C)CN1CCN(Cc2ccc(OC(C)C3CCCCC3)cc2)C(=O)C1` (stereo not drawn) [Example 214]: the EC50 was 712 nM.
Take `CC1CN(Cc2ccc(O[C@H](C)c3ccccc3)cc2)C(=O)O1` (stereo partly drawn) [Example 139]: the EC50 worked out at 79.7 nM.
The same measure for `COc1cc(COc2ccc(CN3CC(C)OC3=O)cc2)ccc1C` (stereo not drawn) [Example 146]: 1110 nM; for `O=C1OCCN1Cc1ccc(OCCC2CCCCC2)cc1` [Example 11]: 699 nM; for `CC(C)COc1ccc(CN2CC(C)(C)COC2=O)cc1` [Example 16]: 663 nM.
The same measure for `O=C1OC(c2ccccc2)CN1Cc1ccc(OCCC2CCCCC2)cc1` (stereo not drawn) [Example 10]: 395 nM; for `CC1CN(Cc2ccc(OCc3ccc(F)cc3Cl)cc2)C(=O)O1` (stereo not drawn) [Example 115]: 71.8 nM.
Take `CC1CN(Cc2ccc(OCc3cccc(Cl)c3)cc2)C(=O)O1` (stereo not drawn) [Example 108]: the concentration for a half-maximal effect (EC50) turned out to be 91.2 nM.
The result for `C[C@@H]1CN(Cc2ccc(/C=C/c3ccccc3)cc2)C(=O)O1` [Example 317, (5R)-5-methyl-3-{4-[(E)-2-phenylvinyl]benzyl}-1,3-oxazolidin-2-one] reads 36.4 nM.
With `C[C@@H]1CN(Cc2ccc(OCC3CCCCC3)c(F)c2)C(=O)O1` [Example 227, (5R)-3-[4-(cyclohexylmethoxy)-3-fluorobenzyl]-5-methyl-1,3-oxazolidin-2-one], the EC50 is 196 nM.
The result for `CC(Oc1ccc(CN2CC(C)(C)COC2=O)cc1)c1ccccc1` (stereo not drawn) [Example 45] reads 213 nM; that for `Cc1cc(-c2ccc(CN3C[C@@H](C)OC3=O)cn2)ccc1F` [Example 271], 475 nM.
The same measure for `Cc1ccc(Cl)cc1-c1ccc(CN2C[C@@H](C)OC2=O)cc1` [Example 233]: 45.6 nM.
The result for `CC1CN(Cc2ccc(OCc3ccc(Cl)cc3F)cc2)C(=O)O1` (stereo not drawn) [Example 88] reads 66.6 nM.
